Laboratory results from patent publication US8765949B2, “CCR2 receptor antagonists and uses thereof” (Boehringer Ingelheim International GmbH, priority 2009, dated 2014).

Each compound was assayed against T1, CCR2 (Homo sapiens, UniProt P41597) (assay: CCR2 receptor membrane binding assay ([125I]MCP-1, THP-1 membranes, SPA beads)). Conditions: dissociation constant hKi; THP-1 cell membranes, [125I]MCP-1, bound radioactivity after 8 h.
T1 construct: Membranes were prepared from THP-1 cells; endogenous in cells; host or cells: THP-1 (human acute monocytic leukaemia cells), membrane preparation
T1 sequence (P41597 1-360 isoform P41597-2): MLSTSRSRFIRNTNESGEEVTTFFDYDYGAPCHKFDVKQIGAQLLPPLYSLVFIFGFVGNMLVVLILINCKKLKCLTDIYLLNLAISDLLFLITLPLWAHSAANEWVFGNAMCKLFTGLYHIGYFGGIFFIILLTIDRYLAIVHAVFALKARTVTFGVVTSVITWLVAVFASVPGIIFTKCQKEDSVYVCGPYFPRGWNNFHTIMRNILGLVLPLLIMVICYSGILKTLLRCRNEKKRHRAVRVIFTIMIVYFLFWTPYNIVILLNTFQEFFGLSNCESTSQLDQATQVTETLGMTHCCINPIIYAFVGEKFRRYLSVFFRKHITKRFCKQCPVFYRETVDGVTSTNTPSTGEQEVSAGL
Experimental: The above exemplary substances have been tested for binding to CCR2 using a binding assay as outlined herein below:
THP-1 cells (human acute monocytic leukaemia cells) were cultured under standardized conditions at 37° C. and 5% CO2 in a humidified incubator. THP-1 cells were cultivated in RPMI 1640 medium (Gibco 21875) containing 1% MEM-NEAA (Gibso 11140) 2 mM L-glutamine, 1.5 g/L sodium bicarbonate, 4.5 g/L glucose, 10 mM HEPES and 1.0 mM sodium pyruvate, 90%; 10% fetal calf serum (FCS Gibco 10500-064).
Membranes were prepared from THP-1 cells. THP-1 cells were centrifuged at 300×g at 4° C. for 10 min. The cell pellet was resuspendet in Phosphate Buffer Saline (PBS, including 10 μM Pefabloc and a protease inhibitor mix ‘complete’, Boehringer Mannheim (1 tablet/50 ml)), to a concentration of […]. The membrane preparation was performed by disrupting the cells by nitrogen […] (at 50 bar, for 1 h) in a “Nitrogen Bombe” (Parr Instrument). Cell debris was removed by centrifugation (800×g at 4° C., 1 min). The supernatant was centrifuged at 80000×g, 4° C. for 30 min to sediment the cell membranes. Usually 50 mg of protein (Bradford assay) were yielded from 1×10E9 cells. The membranes were resuspendet in 25 mM HEPES, 25 mM MgCl2, 1 mM CaCl2, 10% Glycerine for storage in aliquots at −80° C. in 25 mM HEPES, 25 mM MgCl2, 1 mM CaCl2, 10% Glycerine and stored at −80° C.
Receptor Membrane Binding Assay:
Perkin Elmer NEX 332 Jod 125 MCP-1, Stock: 2200 Ci/mmol solved in 2000 μl assay buffer, stored at −20° C. THP-1 membrane were adjusted with 25 mM HEPES, pH 7.2; 5 mM MgCl2; 0.5 mM CaCl2; 0.2% BSA assay buffer to a concentration of 2.5 μg/15 μl. Amersham Biosciences PVT-WGA Beads (RPNQ0001) were adjusted with assay buffer to a concentration of 0.24 mg/30 μl. For preparation of the membrane-bead-suspension membranes and beads were incubated for 30 min at RT under rotation (60 rpm) with a ratio of 1:2. Test compounds dissolved in 100% DMSO to a concentration of 10 mM and are further diluted with 100% DMSO to 1 mM. All additional compound dilutions were obtained with assay buffer, final 1% DMSO. Compounds, membrane-bead-suspension and [125I]MCP-1 (ca. 25000 cpm/10 μl) were incubated. Bound radioactivity was determined by scintillation counter after 8 h. Determination of affinity of test compounds (dissociation constant hKi) is calculated by iterative fitting of experimental data using the “easy sys” program, which is based on law of mass action (Schittkowski K. (1994), Numerische Mathematik, Vol. 68, 129-142).
With `CO[C@H]1COCC[C@H]1NC1CCN(C(=O)c2cc(NC[C@H]3CCC[C@@H](c4ccc(C)cc4)O3)nc(C(F)(F)F)n2)CC1` [Example 53h] the Ki was 2 nM. For `Cc1cccc([C@@H]2CCC[C@H](CNc3nc(C)nc(C(=O)N4CCC(N5CCC(N(C)S(C)(=O)=O)CC5)CC4)c3C)O2)c1` [Example 22], the Ki was 11 nM. Work on `CO[C@@H]1COCC[C@@H]1NC1CCN(C(=O)c2ccnc(NC[C@H]3CCC[C@@H](c4ccccc4)O3)c2C)CC1` [Example 53g] yielded a Ki of 16 nM. Work on `COc1nc(NC[C@H]2CCC[C@@H](c3ccc(C(F)(F)F)cc3)O2)c(C)c(C(=O)N2CCC(N[C@H]3CCOC[C@H]3OC)CC2)n1` [Example 53ac] yielded a Ki of 0.8 nM. Work on `COc1nc(NC[C@H]2CCC[C@@H](c3ccc(OC(F)(F)F)cc3)O2)c(C)c(C(=O)N2CCC(N[C@@H]3CCOC[C@@H]3OC)CC2)n1` [Example 53ad] yielded a Ki of 0.3 nM. With `CO[C@@H]1COCC[C@@H]1NC1CCN(C(=O)c2cc(NC[C@H]3CCC[C@@H](c4ccc(C(F)(F)F)cc4)O3)nc(C(F)(F)F)n2)CC1` [Example 53t] the Ki was 0.4 nM. `CO[C@@H]1COCC[C@@H]1NC1CCN(C(=O)c2ncnc(NC[C@H]3CCC[C@@H](c4ccc(SC(F)(F)F)cc4)O3)c2C)CC1` [Example 53am] gave a Ki of 0.3 nM. `Cc1ccc([C@@H]2CCC[C@H](CNc3ncnc(C(=O)N4CCC(N5CCC(N(C)S(C)(=O)=O)CC5)CC4)c3C)O2)cc1` [Example 1] gave a Ki of 8 nM. With `Cc1c(NC[C@@H]2CCC[C@H](c3ccccc3)O2)ncnc1C(=O)N1CCC(N2CCC(N(C)S(C)(=O)=O)CC2)CC1` (single isomer, unassigned) [Example 13] the Ki was 486 nM. Work on `CO[C@@H]1COCC[C@@H]1NC1CCN(C(=O)c2ccnc(NC[C@H]3CCC[C@@H](c4ccc(C)cc4)O3)c2C)CC1` [Example 53a] yielded a Ki of 7 nM. For `CO[C@@H]1COCC[C@@H]1NC1CCN(C(=O)c2ncnc(NC[C@H]3CCC[C@@H](c4ccc(C(F)(F)F)cc4)O3)c2C)CC1` [Example 52], the Ki was 1 nM. With `CO[C@@H]1COCC[C@@H]1NC1CCN(C(=O)c2ncnc(NC[C@@H]3CCC[C@H](c4cccc(C(F)(F)F)c4)O3)c2C)CC1` [Example 45] the Ki was 6 nM. With `CO[C@@H]1COCC[C@@H]1NC1CCN(C(=O)c2ncnc(NC[C@H]3CCC[C@@H](c4cccc(C)c4)O3)c2C)CC1` [Example 49] the Ki was 4 nM. For `CO[C@H]1COCC[C@H]1NC1CCN(C(=O)c2nc(C)nc(NC[C@@H]3CCC[C@H](c4cccc(C)c4)O3)c2C)CC1` [Example 34], the Ki was 63 nM. In the case of `CCS(=O)(=O)N(C)C1CCN(C2CCN(C(=O)c3ncnc(NC[C@H]4CCC[C@@H](c5ccc(Cl)cc5)O4)c3C)CC2)CC1` [Example 27], the Ki is reported as 12 nM. `COc1nc(NC[C@H]2CCC[C@@H](c3ccc(OC(F)(F)F)cc3)O2)c(C)c(C(=O)N2CCC(N[C@H]3CCOC[C@H]3OC)CC2)n1` [Example 53ae] gave a Ki of 0.4 nM. In the case of `Cc1c(NC[C@@H]2CCC[C@H](c3ccc(C(C)(C)C#N)cc3)O2)ncnc1C(=O)N1CCC(N2CCC(N(C)S(C)(=O)=O)CC2)CC1` [Example 28f], the Ki is reported as 78 nM. In the case of `CO[C@H]1COCC[C@H]1NC1CCN(C(=O)c2nc(C(F)(F)F)nc(NC[C@H]3CCC[C@@H](c4ccccc4)O3)c2C)CC1` [Example 53ah], the Ki is reported as 0.8 nM. In the case of `CO[C@H]1COCC[C@H]1NC1CCN(C(=O)c2ncnc(NC[C@H]3CCC[C@@H](c4cccc(C)c4)O3)c2C)CC1` [Example 48], the Ki is reported as 7 nM. `Cc1ccc([C@H]2CCC[C@@H](CNc3ncnc(C(=O)N4CCC(N5CCC(N(C)S(C)(=O)=O)CC5)CC4)c3C)O2)cc1F` [Example 28d] showed a Ki of 12 nM. Compound `CO[C@H]1COCC[C@H]1NC1CCN(C(=O)c2ncnc(NC[C@H]3CCC[C@@H](c4ccc(C(F)(F)F)cc4)O3)c2C)CC1` [Example 53] has a Ki of 2 nM. `CO[C@@H]1COCC[C@@H]1NC1CCN(C(=O)c2ncnc(NC[C@@H]3CCC[C@H](c4ccc(Cl)cc4)O3)c2C)CC1` [Example 43] gave a Ki of 39 nM. `COc1nc(NC[C@H]2CCC[C@@H](c3ccc(C(F)(F)F)cc3)O2)cc(C(=O)N2CCC(N[C@@H]3CCOC[C@@H]3OC)CC2)n1` [Example 53o] gave a Ki of 1 nM. For `Cc1ccc([C@H]2CCC[C@@H](CNc3ncnc(C(=O)N4CCC(N5CCC(N(C)S(C)(=O)=O)CC5)CC4)c3C)O2)cc1` [Example 19], the Ki was 162 nM. Compound `Cc1ccc([C@@H]2CCC[C@H](CNc3ncnc(C(=O)N4CCC(N5CCC6(CC5)Cc5ccccc5O6)CC4)c3C)O2)cc1` [Example 53x] has a Ki of 9 nM. Compound `CO[C@H]1COCC[C@H]1NC1CCN(C(=O)c2ncnc(NC[C@@H]3CCC[C@H](c4ccc(Cl)cc4)O3)c2C)CC1` [Example 44] has a Ki of 166 nM. With `CO[C@H]1COCC[C@H]1NC1CCN(C(=O)c2ncnc(NC[C@@H]3CCC[C@H](c4ccc(C)cc4)O3)c2C)CC1` [Example 31] the Ki was 276 nM. With `Cc1c(NCC2CCCC(c3ccc(Cl)cc3)O2)ncnc1C(=O)N1CCC(N2CCC(N(C)S(C)(=O)=O)CC2)CC1` (stereo not shown) [Example 15] the Ki was 24 nM. Compound `CO[C@H]1COCC[C@H]1NC1CCN(C(=O)c2nccc(NC[C@H]3CCC[C@@H](c4ccc(C)cc4)O3)c2C)CC1` [Example 53j] has a Ki of 21 nM. `COc1nc(NC[C@H]2CCC[C@@H](c3ccccc3)O2)c(C)c(C(=O)N2CCC(N[C@H]3CCOC[C@H]3OC)CC2)n1` [Example 53ag] gave a Ki of 5 nM. `CO[C@H]1COCC[C@H]1NC1CCN(C(=O)c2ncnc(NC[C@@H]3CCC[C@H](c4cccc(C(F)(F)F)c4)O3)c2C)CC1` [Example 46] showed a Ki of 302 nM. For `CO[C@H]1COCC[C@H]1NC1CCN(C(=O)c2ncnc(NC[C@H]3CCC[C@@H](c4ccc(Cl)cc4)O3)c2C)CC1` [Example 42], the Ki was 8 nM. `Cc1ccc([C@@H]2CCC[C@H](CNc3cc(C(=O)N4CCC(N5CCC(N(C)S(C)(=O)=O)CC5)CC4)ncn3)O2)cc1` [Example 28g] showed a Ki of 8 nM. `COC1COCCC1NC1CCN(C(=O)c2ncnc(NC[C@@H]3CCC[C@H](c4ccc(C)c(F)c4)O3)c2C)CC1` (stereo partly shown) [Example 28c] gave a Ki of 0.4 nM. For `CO[C@H]1COCC[C@H]1NC1CCN(C(=O)c2ncnc(NC[C@@H]3CCC[C@H](c4ccc(C(F)(F)F)cc4)O3)c2C)CC1` [Example 36], the Ki was 51 nM. `CO[C@@H]1COCC[C@@H]1NC1CCN(C(=O)c2ncnc(NC[C@H]3CCC[C@@H](c4cccc(C(F)(F)F)c4)O3)c2C)CC1` [Example 47] was tested, and the Ki was 94 nM. `Cc1c(NC[C@H]2CCC[C@@H](c3ccc(C(F)(F)F)cc3)O2)ncnc1C(=O)N1CCC(N2CCC3(CC2)Cc2ccccc2O3)CC1` [Example 53y] was tested, and the Ki was 16 nM. With `Cc1c(NC[C@H]2CCC[C@@H](c3ccc(C(F)(F)F)cc3)O2)ncnc1C(=O)N1CCC(N2CCC(N(C)S(C)(=O)=O)CC2)CC1` [Example 24] the Ki was 4 nM. `Cc1c(NC[C@@H]2CCC[C@H](c3cccc(C(F)(F)F)c3)O2)ncnc1C(=O)N1CCC(N2CCC(N(C)S(C)(=O)=O)CC2)CC1` [Example 7] was tested, and the Ki was 36 nM. Compound `COc1nc(NC[C@H]2CCC[C@@H](c3ccc(OC(F)(F)F)cc3)O2)cc(C(=O)N2CCC(N[C@@H]3CCOC[C@@H]3OC)CC2)n1` [Example 53q] has a Ki of 1 nM. For `Cc1ccc(C2CCC[C@H](CNc3ncnc(C(=O)N4CCC(N5CCC(c6cccc(C(=O)O)c6)CC5)CC4)c3C)O2)cc1` (stereo partly shown) [Example 56], the Ki was 802 nM. Compound `Cc1c(NC[C@H]2CCC[C@@H](c3ccc(OC(F)(F)F)cc3)O2)ncnc1C(=O)N1CCC(N[C@H]2CCOC[C@H]2F)CC1` [Example 53aj] has a Ki of 0.7 nM. Work on `CO[C@@H]1COCC[C@@H]1NC1CCN(C(=O)c2nc(C)nc(NC[C@H]3CCC[C@@H](c4cccc(C)c4)O3)c2C)CC1` [Example 51] yielded a Ki of 8 nM.
